{
  "source": "patent US20150197802A1",
  "about": "(priority 2012, published 2015)",
  "key": {"HPTC": {"system": "HPTC", "assay_type": "cell-based, human"}, "renal proximal tubule": {"system": "renal proximal tubule", "details": "cited from earlier work; for classification of the test compound with regard to nephrotoxicity: group of the test compound; for nephrotoxic effects in humans: clinical, clinically relevant concentrations"}, "[1]": {"system": "human primary renal proximal tubular cells (HPTC)", "assay": "IL-6 and IL-8 expression (qPCR) in renal proximal tubular cells after 16 h exposure"}},
  "note": "Like-named read-outs stand apart in the source and are kept apart here.",
  "data": [
    {"compound": "[Cl][Cd][Cl]", "note": "[CdCl2]", "values": [
      {"measurement": "IL-8 expression, up-regulation compared with the other marker genes tested", "setting": "HPTC; two batches of HPTC, high doses (2.5 mg/ml gentamicin, 10 mg/ml CdCl2), FIG. 1", "result": "highest levels of up-regulation"}
    ]},
    {"compound": "[Cl][Cu][Cl]", "note": "[CuCl2]", "values": [
      {"measurement": "classification of the test compound with regard to nephrotoxicity", "setting": "renal proximal tubule", "result": "PT-specific nephrotoxin"}
    ]},
    {"compound": "N.N.[Cl][Pt][Cl]", "note": "[cisplatin]", "values": [
      {"measurement": "cell death", "setting": "[1]; HPTC 1, highest concentration tested, dose-response FIG. 2", "result": "massive cell death"}
    ]},
    {"compound": "C[C@@H]1C[C@H]2[C@@H]3CCC4=CC(=O)C=C[C@]4(C)[C@@]3(F)[C@@H](O)C[C@]2(C)[C@@]1(O)C(=O)CO", "note": "[dexamethasone]", "values": [
      {"measurement": "classification of the test compound with regard to nephrotoxicity", "setting": "renal proximal tubule", "result": "not nephrotoxic"}
    ]},
    {"compound": "OCCO", "note": "[ethylene glycol]", "values": [
      {"measurement": "classification of the test compound with regard to nephrotoxicity", "setting": "renal proximal tubule", "result": "non-PT-specific nephrotoxin"}
    ]},
    {"compound": "C[C@H](Cn1cnc2c(N)ncnc21)OCP(=O)(O)O", "note": "[tenofovir]", "values": [
      {"measurement": "nephrotoxic effects in humans", "setting": "renal proximal tubule", "result": "injures the renal proximal tubules"}
    ]},
    {"compound": "CN(C)[C@@H]1C(O)=C(C(N)=O)C(=O)[C@@]2(O)C(O)=C3C(=O)c4c(O)cccc4[C@@](C)(O)[C@H]3C[C@@H]12", "note": "[tetracycline]", "values": [
      {"measurement": "test result in the IL-6/IL-8 expression method (positive = predicted PT-specific nephrotoxin)", "setting": "[1]; 1 μg/ml to 1000 μg/ml, 16 h", "result": "positive"},
      {"measurement": "nephrotoxic effects in humans", "setting": "renal proximal tubule", "result": "usually no obvious nephrotoxic effects, but can induce AKI and ESRD in patients with pre-existing kidney disease"}
    ]},
    {"compound": "gentamicin", "values": [
      {"measurement": "IL-8 expression, up-regulation compared with the other marker genes tested", "setting": "HPTC", "result": "highest levels of up-regulation"}
    ]}
  ]
}
